Measured values from patent publication US20150072968A1, “Treating Infections with Ceftolozane/Tazobactam in Subjects Having Impaired Renal Function” (Calixa Therapeutics, Inc., priority 2013, published 2015).

What was measured:
P. aeruginosa = assay: Baseline susceptibility testing of cUTI isolates, CLSI broth microdilution; assay type: cell-based, Pseudomonas aeruginosa; conditions: comparators
Protocol: (§1) 764 isolates of Gram-negative aerobic organisms were isolated from 800 patients in the microbiological modified intent-to-treat population (enrolled in 20 countries in Eastern Europe, North America, South America and 5 countries outside of these regions). Susceptibility (S) testing was performed with ceftolozane/tazobactam at a fixed 4 μg/mL of tazobactam and 10 antibiotic comparators using CLSI broth microdilution methods. ESBL enzymes were identified by PCR.

[1] = tested on: Klebsiella pneumoniae (KPN); assay: as above; assay type: cell-based
Protocol: as §1

Pseudomonas aeruginosa [2] = assay: Phase 3 cUTI study, per pathogen microbiological eradication; assay type: in vivo; conditions: levofloxacin-resistant population, ME
From the text: (§2) The primary efficacy endpoint was the composite microbiological and clinical cure response at the test-of-cure (TOC) visit in the microbiologically modified intent-to-treat (mMITT) population, which included all patients who received study medication and had at least 1 baseline uropathogen. The key secondary efficacy endpoint was the composite microbiological and clinical cure response at the TOC visit in the microbiologically evaluable (ME) population, which included protocol-adherent mMITT patients with a urine culture at the TOC visit.

Escherichia coli [3] = assay: as above; assay type: in vivo; conditions: levofloxacin-resistant population, ME
From the text: as §2

Enterobacteriaceae = assay: as above; assay type: in vivo; conditions: levofloxacin-resistant population, ME
From the text: as §2

Klebsiella pneumoniae [4] = assay: as above; assay type: in vivo; conditions: levofloxacin-resistant population, ME
From the text: as §2

[5] = tested on: complicated urinary tract infections (including pyelonephritis); assay: Phase 3 study of complicated urinary tract infections, composite microbiological and clinical cure at TOC visit; assay type: in vivo, human; conditions: for Composite Cure Rate at TOC: levofloxacin-resistant population
From the text: as §2

E. coli = assay: Baseline susceptibility testing of cUTI isolates, CLSI broth microdilution; assay type: cell-based, Escherichia coli
Protocol: as §1

[6] = human, in vivo, 7 days
gram-negative pathogens = assay: Baseline susceptibility testing of cUTI isolates, CLSI broth microdilution; assay type: cell-based; conditions: mMITT population; ceftolozane/tazobactam breakpoint ≦8 mg/1, levofloxacin CLSI criteria
Protocol: as §1

[7] = tested on: complicated intra-abdominal infections; assay: Phase 3 study of complicated intra-abdominal infections, clinical response at TOC visit; assay type: in vivo, human
Protocol: (§3) A total of 979 adults hospitalized with complicated intra-abdominal infections were randomized and received study medications in a multinational, double-blind study comparing CXA-201 (1.5 g IV every 8 hours) plus metronidazole (500 mg IV every 8 hours) to meropenem (1 g IV every 8 hours) for 4 to 14 days of therapy. Complicated intra-abdominal infections included appendicitis, cholecystitis, diverticulitis, gastric/duodenal perforation, perforation of the intestine, and other causes of intra-abdominal abscesses and peritonitis. The primary efficacy endpoint was clinical response at the test-of-cure (TOC) visit in the microbiological intent-to-treat (MITT) population, which included all patients who had at least 1 baseline intra-abdominal pathogen. The key secondary efficacy endpoint was clinical response at the TOC visit in the microbiologically evaluable (ME) population, which included all protocol-adherent MITT patients.

Bacteroides vulgatus = assay: Phase 3 cIAI study, per pathogen clinical cure; assay type: in vivo; conditions: ME population
Protocol: as §3

[8] = tested on: Bacteroides thetaiotaomicron; assay: Phase 3 cIAI study, per pathogen clinical cure; assay type: in vivo; conditions: ME population
Protocol: as §3

Pseudomonas aeruginosa [9] = assay: Phase 3 cIAI study, per pathogen clinical cure; assay type: in vivo; conditions: ME population
Protocol: as §3

Escherichia coli [10] = assay: Phase 3 cIAI study, per pathogen clinical cure; assay type: in vivo; conditions: ME population
Protocol: as §3

Bacteroides fragilis = assay: Phase 3 cIAI study, per pathogen clinical cure; assay type: in vivo; conditions: ME population
Protocol: as §3

Aerobic Gram-negative = assay: Phase 3 cIAI study, per pathogen clinical cure; assay type: in vivo; conditions: ME population
Protocol: as §3

Streptococcus salivarius = assay: Phase 3 cIAI study, per pathogen clinical cure; assay type: in vivo; conditions: ME population
Protocol: as §3

Enterobacter cloacae = assay: Phase 3 cIAI study, per pathogen clinical cure; assay type: in vivo; conditions: ME population
Protocol: as §3

Proteus mirabilis = assay: Phase 3 cIAI study, per pathogen clinical cure; assay type: in vivo; conditions: ME population
Protocol: as §3

[11] = tested on: Streptococcus constellatus; assay: Phase 3 cIAI study, per pathogen clinical cure; assay type: in vivo; conditions: ME population
Protocol: as §3

Anaerobic Gram-negative = assay: Phase 3 cIAI study, per pathogen clinical cure; assay type: in vivo; conditions: ME population
Protocol: as §3

Streptococcus anginosus = assay: Phase 3 cIAI study, per pathogen clinical cure; assay type: in vivo; conditions: ME population
Protocol: as §3

Klebsiella pneumoniae [12] = assay: Phase 3 cIAI study, per pathogen clinical cure; assay type: in vivo; conditions: ME population
Protocol: as §3

Klebsiella oxytoca = assay: Phase 3 cIAI study, per pathogen clinical cure; assay type: in vivo; conditions: ME population
Protocol: as §3

Bacteroides ovatus = assay: Phase 3 cIAI study, per pathogen clinical cure; assay type: in vivo; conditions: ME population
Protocol: as §3

Aerobic Gram-positive = assay: Phase 3 cIAI study, per pathogen clinical cure; assay type: in vivo; conditions: ME population
Protocol: as §3

[13] = Phase 1 single dose PK of 750 mg ceftolozane/tazobactam in severe renal impairment and ESRD on hemodialysis (Example 8); assay type: in vivo, human
Protocol: This was a Phase 1, multicenter, prospective, open-label study of 750 mg ceftolozane/tazobactam (as CXA-201) administered IV in male and female adult subjects with severe renal impairment (estimated CLCR<30 mL/min) and subjects with end-stage renal disease (ESRD) on hemodialysis (HD). The primary objective of the study was to determine the PK profile of ceftolozane/tazobactam in subjects with severe renal impairment and subjects with ESRD on HD and to determine the effect of HD on the clearance of ceftolozane/tazobactam.
Subjects with severe renal impairment received a single IV 1-hour infusion of 750 mg ceftolozane/tazobactam on Day 1. […] Subjects in this cohort received an IV dose of 750 mg ceftolozane/tazobactam as a 1 hour infusion immediately after their first HD session on Day 1 (postdialysis, approximately 72 hours prior to the next HD session) and a second dose of ceftolozane/tazobactam approximately 2 hours before their second HD session on Day 4 of the study. Infusion of ceftolozane/tazobactam was completed approximately 1 hour before the start of HD.
Subjects in both cohorts had urine (if not anuric) and plasma samples collected for determination of levels of ceftolozane, tazobactam and the M1 metabolite of tazobactam; subjects in the ESRD on HD cohort also had dialysate fluid samples collected for PK assessment. Plasma, urine, and dialysate levels of ceftolozane, tazobactam, and its metabolite M1 collected over a prespecified interval were determined by LC/MS/MS assay.
All subjects underwent hemodialysis for 3 to 4 hours using a high-flux membrane (either 1.4, 1.8, or 1.9 m^2) on Days 1, 4, and 6 as scheduled. Average blood flow rate was 264 to 600 mL/min and average dialysis flow rate was either 600 or 800 mL/min for all subjects with ESRD.

[14] = ESRD on HD, second IV infusion of 750 mg on Day 4 (during HD)
[15] = ESRD on HD, second infusion Day 4, start of infusion to end of dialysis
[16] = severe renal impairment, single IV 1-hour infusion of 750 mg ceftolozane/tazobactam

CC(C)(O/N=C(\C(=O)N[C@@H]1C(=O)N2C(C(=O)[O-])=C(C[n+]3ccccc3)CS[C@H]12)c1csc(N)n1)C(=O)O [ceftazidime]
susceptibility of isolates (P. aeruginosa): 40.0%
isolates inhibited at ≦8 μg/mL [1]: 58.2%

C[C@@H](O)[C@H]1C(=O)N2C(C(=O)O)=C(SCCN=CN)C[C@H]12 [imipenem]
susceptibility of isolates (P. aeruginosa): 45.0%

C[C@H]1COc2c(N3CCN(C)CC3)c(F)cc3c(=O)c(C(=O)O)cn1c23 [Levofloxacin]
Per-pathogen Microbiological Eradication Rate at TOC (Pseudomonas aeruginosa [2]): 37.5 (3/8) %
Per-pathogen Microbiological Eradication Rate at TOC (Escherichia coli [3]): 44.1%
Per-pathogen Microbiological Eradication Rate at TOC (Enterobacteriaceae): 45.2%
Per-pathogen Microbiological Eradication Rate at TOC (Klebsiella pneumoniae [4]): 30.0 (3/10) %
Composite microbiological and clinical cure rate at TOC visit ([5]; ME population): 266/353 (75.4) %
Composite Cure Rate at TOC ([5]; ME): 43.4%
Composite Cure Rate at TOC ([5]; mMITT): 39.3%
Composite microbiological and clinical cure rate at TOC visit ([5]; mMITT population): 275/402 (68.4) %
MIC50 (E. coli; E. coli baseline isolates): 0.03 mg/1
MIC90 (E. coli; E. coli baseline isolates): > 4 mg/1
E. coli isolates susceptible (E. coli; mMITT population, regardless of ESBL phenotype): 74.1%
susceptibility of isolates (P. aeruginosa): 35.0%
adverse event gastrointestinal symptoms [6]: 11.4%
adverse event headache [6]: 4.9%
incidence of treatment-limiting adverse events [6]: < 2%
patients with adverse events [6]: 34.4%
gram-negative pathogens isolated at baseline susceptible (gram-negative pathogens): 70.7%

CO/N=C(\C(=O)N[C@@H]1C(=O)N2C(C(=O)[O-])=C(C[N+]3(C)CCCC3)CS[C@H]12)c1csc(N)n1 [cefepime]
susceptibility of isolates (P. aeruginosa): 50.0%

NCC[C@H](O)C(=O)N[C@@H]1C[C@H](N)[C@@H](O[C@H]2O[C@H](CN)[C@@H](O)[C@H](O)[C@H]2O)[C@H](O)[C@H]1O[C@H]1O[C@H](CO)[C@@H](O)[C@H](N)[C@H]1O [amikacin]
susceptibility of isolates (P. aeruginosa): 55.0%

C[C@@H](O)[C@H]1C(=O)N2C(C(=O)O)=C(S[C@@H]3CN[C@H](C(=O)N(C)C)C3)[C@H](C)[C@H]12 [Meropenem]
Clinical cure rate at TOC visit ([7]; ME population): 304/321 (94.7) %
Clinical cure rate at TOC visit ([7]; MITT population): 364/417 (87.3) %
Per pathogen clinical cure rate (Bacteroides vulgatus): 21/22 (95.5) %
Per pathogen clinical cure rate [8]: 40/43 (93.0) %
Per pathogen clinical cure rate (Pseudomonas aeruginosa [9]): 27/29 (93.1) %
Per pathogen clinical cure rate (Escherichia coli [10]; Escherichia coli): 216/231 (93.5) %
Per pathogen clinical cure rate (Escherichia coli [10]; Escherichia coli (CTX-M-14/15 ESBL-producing)): 7/9 (77.8) %
Per pathogen clinical cure rate (Escherichia coli [10]; Escherichia coli (EBSL-producing)): 18/20 (90.0) %
Per pathogen clinical cure rate (Bacteroides fragilis): 56/57 (98.2) %
Per pathogen clinical cure rate (Aerobic Gram-negative): 273/291 (93.8) %
Per pathogen clinical cure rate (Streptococcus salivarius): 8/8 (100) %
Per pathogen clinical cure rate (Enterobacter cloacae): 22/22 (100) %
Per pathogen clinical cure rate (Proteus mirabilis): 9/10 (90.0) %
Per pathogen clinical cure rate [11]: 20/23 (87.0) %
Per pathogen clinical cure rate (Anaerobic Gram-negative): 132/137 (96.4) %
Per pathogen clinical cure rate (Streptococcus anginosus): 23/23 (100) %
Per pathogen clinical cure rate (Klebsiella pneumoniae [12]; Klebsiella pneumonia): 22/25 (88.0) %
Per pathogen clinical cure rate (Klebsiella pneumoniae [12]; Klebsiella pneumoniae (CTX-M-15 ESBL-producing)): 7/9 (77.8) %
Per pathogen clinical cure rate (Klebsiella pneumoniae [12]; Klebsiella pneumoniae (ESBL-producing)): 3/4 (75.0) %
Per pathogen clinical cure rate (Klebsiella oxytoca): 21/22 (95.5) %
Per pathogen clinical cure rate (Bacteroides ovatus): 42/42 (100) %
Per pathogen clinical cure rate (Aerobic Gram-positive): 170/185 (91.9) %

C[C@](Cn1ccnn1)([C@@H](N)C(=O)O)S(=O)O [M1 Metabolite]
Cmax, Mean (CV %) ([13]; ESRD on HD, Day 1 IV infusion of 750 mg (non-hemodialysis phase)): 10.0 (40) μg/mL
AUClast, Mean (CV %) ([13]; ESRD on HD, Day 1 IV infusion of 750 mg (non-hemodialysis phase), through 48 hours): 367 (42) μg·h/mL
Cmax, Mean (CV %) [13, 14]: 10.8 (46) μg/mL
tmax, Median (minimum, maximum) [13, 14]: 1.5 (0.5, 24.0) h
AUClast, Mean (CV %) ([13]; ESRD on HD, second IV infusion of 750 mg on Day 4 (during HD), through 44 hours): 176 (40) μg·h/mL
AUClast, Mean (CV %) ([13]; ESRD on HD, second infusion Day 4, approximately 6 hours from start of infusion to end of dialysis): 23.8 (44) μg·h/mL
Cmax, Mean (CV %) [13, 15]: 10.6 (49) μg/mL
t1/2, Mean (CV %) [13, 15]: 1.54 (48) h
tmax, Median (minimum, maximum) [13, 15]: 1.5 (0.5, 1.5) h
AUC∞, Mean (CV %) [13, 16]: 60.3 (30) μg·h/mL
t1/2, Mean (CV %) [13, 16]: 12.0 (29) h
Cmax, Mean (CV %) ([13]; severe renal impairment, single IV 1-hour infusion of 750 mg ceftolozane/tazobactam, plasma): 2.2 (20) μg/mL
AUClast, Mean (CV %) ([13]; severe renal impairment, single IV 1-hour infusion of 750 mg ceftolozane/tazobactam, plasma, through 48 hours): 53.7 (25) μg·h/mL
Exposure (AUC48h) After HD (Day 1), Median (Range) ([13]; subjects with ESRD): 389 (99.8 − 538) μg·h/mL
Exposure (AUC48h) During HD (Day 3), Median (Range) ([13]; subjects with ESRD): 182 (78 − 255) μg·h/mL
removed by dialysis ([13]; subjects with ESRD on HD): ~51%
AUC48h Ratio (Day 3:1), Median (Range) ([13]; subjects with ESRD, during HD vs after HD): 0.49 (0.38 − 0.78)
Percent Removed, Median (Range) ([13]; subjects with ESRD, hemodialysis): 51 (22 − 63) Percent
